In the CheMixHub viscosity set:

Experiment: xn = mol fraction of the nth substance listed

O=CO + NC=O
viscosity [mPa·s]
Conditions | 298.15 K | 303.15 K | 308.15 K | 313.15 K
101 kPa, x2 = 0.1 | 1.946 | – | – | 1.429
101 kPa, x2 = 0.2005 | 2.316 | – | – | 1.685
101 kPa, x2 = 0.3015 | 2.557 | – | – | 1.849
101 kPa, x2 = 0.4 | 2.85 | – | – | 2.065
101 kPa, x2 = 0.5002 | 3.057 | – | – | 2.23
101 kPa, x2 = 0.6001 | 3.196 | – | – | 2.31
101 kPa, x2 = 0.7 | 3.286 | – | – | 2.342
101 kPa, x2 = 0.8001 | 3.314 | – | – | 2.355
101 kPa, x2 = 0.9 | 3.341 | – | – | 2.368
101.33 kPa, x2 = 0.0748 | 1.77 | 1.58 | 1.45 | 1.33
101.33 kPa, x2 = 0.1535 | 2.01 | 1.79 | 1.65 | 1.52
101.33 kPa, x2 = 0.2286 | 2.25 | 2 | 1.83 | 1.68
101.33 kPa, x2 = 0.3078 | 2.5 | 2.21 | 2.02 | 1.84
101.33 kPa, x2 = 0.3891 | 2.81 | 2.47 | 2.26 | 2.07
101.33 kPa, x2 = 0.4554 | 2.86 | 2.52 | 2.3 | 2.1
101.33 kPa, x2 = 0.5248 | 2.98 | 2.62 | 2.39 | 2.18
101.33 kPa, x2 = 0.6239 | 3.06 | 2.69 | 2.46 | 2.24
101.33 kPa, x2 = 0.6923 | 3.09 | 2.72 | 2.48 | 2.25
101.33 kPa, x2 = 0.7982 | 3.13 | 2.74 | 2.49 | 2.26
101.33 kPa, x2 = 0.8449 | 3.12 | 2.73 | 2.48 | 2.26
101.33 kPa, x2 = 0.9202 | 3.11 | 2.72 | 2.47 | 2.25

CC(Cl)(Cl)Cl + CC1CCCCC1
303.15 K, 101 kPa
Conditions | viscosity [mPa·s]
x1 = 0.1468 | 0.6328
x1 = 0.2138 | 0.629
x1 = 0.31 | 0.6248
x1 = 0.4182 | 0.6239
x1 = 0.5255 | 0.6301
x1 = 0.5982 | 0.6379
x1 = 0.69 | 0.6518
x1 = 0.759 | 0.6659
x1 = 0.8273 | 0.6809
x1 = 0.9075 | 0.7009

CCCC[N+](CCCC)(CCCC)CCCC.[OH-] + CS(C)=O
viscosity [mPa·s], 100 kPa
Conditions | 298.15 K | 303.15 K | 308.15 K | 313.15 K
x1 = 0.0159 | 2.19 | 2.01 | 1.87 | 1.77
x1 = 0.0368 | 2.43 | 2.31 | 2.19 | 2.12
x1 = 0.0632 | 2.72 | 2.58 | 2.47 | 2.38
x1 = 0.0911 | 3.02 | 2.88 | 2.77 | 2.7
x1 = 0.1206 | 3.32 | 3.18 | 3.08 | 3
x1 = 0.1519 | 3.65 | 3.5 | 3.4 | 3.33
x1 = 0.2183 | 4.25 | 4.13 | 4.07 | 4.02
x1 = 0.2907 | 4.86 | 4.75 | 4.69 | 4.65
x1 = 0.3787 | 5.51 | 5.38 | 5.33 | 5.29
x1 = 0.4429 | 5.92 | 5.79 | 5.73 | 5.69
x1 = 0.5298 | 6.4 | 6.26 | 6.17 | 6.13
x1 = 0.6052 | 6.71 | 6.56 | 6.45 | 6.42
x1 = 0.6947 | 6.97 | 6.82 | 6.67 | 6.62
x1 = 0.7486 | 7.03 | 6.88 | 6.74 | 6.7
x1 = 0.8273 | 7.07 | 6.93 | 6.77 | 6.7
x1 = 0.8964 | 7 | 6.85 | 6.69 | 6.54
x1 = 0.9481 | 6.86 | 6.7 | 6.53 | 6.42
x1 = 0.9765 | 6.76 | 6.61 | 6.42 | 6.32

CC/C(C)=N/O + CCCCCC
viscosity [mPa·s], 101.3 kPa
Conditions | x1 = 0.0993 | x1 = 0.1991 | x1 = 0.2977 | x1 = 0.3987 | x1 = 0.4972 | x1 = 0.5993 | x1 = 0.6977 | x1 = 0.7981 | x1 = 0.899
293.15 K | 0.345 | 0.393 | 0.461 | 0.556 | 0.69 | 0.899 | 1.213 | 1.729 | 2.695
298.15 K | 0.33 | 0.376 | 0.437 | 0.526 | 0.646 | 0.835 | 1.111 | 1.559 | 2.357
303.15 K | 0.315 | 0.357 | 0.414 | 0.495 | 0.605 | 0.776 | 1.019 | 1.411 | 2.09

O=CO + CN(C)C=O
303.15 K, 101 kPa
Conditions | viscosity [mPa·s]
x1 = 0.1513 | 0.848
x1 = 0.2841 | 0.986
x1 = 0.4038 | 1.16
x1 = 0.6144 | 1.45
x1 = 0.7869 | 1.58
x1 = 0.8657 | 1.58

CC/C(C)=N/O + C1CCCCC1
viscosity [mPa·s], 101.3 kPa
Conditions | x1 = 0.0972 | x1 = 0.1952 | x1 = 0.2926 | x1 = 0.3921 | x1 = 0.4913 | x1 = 0.5914 | x1 = 0.6926 | x1 = 0.7942 | x1 = 0.8967
293.15 K | 1.007 | 1.072 | 1.166 | 1.302 | 1.489 | 1.75 | 2.122 | 2.681 | 3.585
298.15 K | 0.923 | 0.982 | 1.065 | 1.182 | 1.339 | 1.567 | 1.884 | 2.347 | 3.035
303.15 K | 0.844 | 0.895 | 0.967 | 1.068 | 1.205 | 1.397 | 1.667 | 2.053 | 2.622
